Results as given in patent US6670366B1, “Pyrazolopyrimidinone cGMP PDE5 inhibitors for the treatment of sexual dysfunction” (Pfizer Inc, priority 1998, dated 2003).

Biological target: cGMP PDE5 (UniProt O76074)
Assay: In vitro PDE inhibitory activity against cGMP PDE5
Type: biochemical, human or rabbit
Conditions: concentration of compound required for 50% inhibition of enzyme activity, read-out: IC50 as inhibitors of cGMP PDE5
Description: In vitro PDE inhibitory activities against cyclic guanosine 3′,5′-monophosphate (cGMP) and cyclic adenosine 3′,5′-monophosphate (cAMP) phosphodiesterases were determined by measurement of their IC50 values (the concentration of compound required for 50% inhibition of enzyme activity).
The required PDE enzymes were isolated from a variety of sources, including human corpus cavernosum, human and rabbit platelets, human cardiac ventricle, human skeletal muscle and bovine retina, essentially by the method of W. J. Thompson and M. M. Appleman (Biochem., 1971, 10, 311). In particular, the cGMP-specific PDE (PDE5) and the cGMP-inhibited cAMP PDE (PDE3) were obtained from human corpus cavernosum tissue, human platelets or rabbit platelets; the cGMP-stimulated PDE (PDE2) was obtained from human corpus cavernosum; the calcium/calmodulin (Ca/CAM)-dependent PDE (PDE1) from human cardiac ventricle; the cAMP-specific PDE (PDE4) from human skeletal muscle; and the photoreceptor PDE (PDE6) from bovine retina.
Assays were performed using modification of the “batch” method of W. J. Thompson et al. (Biochem., 1979, 18, 5228).

IC50	Structure (SMILES)
14 nM	CCCOc1ccc(S(=O)(=O)NC2CCN(C(=O)OCC)CC2)cc1-c1nc2c(CCC)n(Cc3ccccn3)nc2c(=O)[nH]1 [Example 10]
9.7 nM	CCCc1c2nc(-c3cc(S(=O)(=O)N(C)C)cnc3OCC)[nH]c(=O)c2nn1Cc1ccccn1 [Example 19, 5-[5-(N,N-Dimethylaminosulfonyl)-2-ethoxypyridin-3-yl]-3-n-propyl-2-(pyridin-2-yl)methyl-2,6dihydro-7H-pyrazolo[4,3-d]pyrimidin-7-one]
8.5 nM	CCCOc1ncc(S(=O)(=O)NCCN(C)C)cc1-c1nc2c(CCC)n(Cc3ccccn3)nc2c(=O)[nH]1 [Example 20, 5-(5-[(3-N,N-Dimethylamino)-1-ethylaminosulfonyl]-2-n-propoxypyridin-3-yl)-3-n-propyl-2-(pyridin-2-yl)methyl-2,6-dihydro-7H-pyrazolo[4,3-d]pyrimidin-7-one]
10.3 nM	CCc1c2nc(-c3cc(S(=O)(=O)N4CCC(CC)CC4)cnc3OCCOC)[nH]c(=O)c2nn1Cc1ccccn1 [Example 22]

More lines, now with the values behind:

Structure (SMILES)	IC50
CCOc1ccc(S(=O)(=O)N2CCC(CC)CC2)cc1-c1nc2c(CC)n(Cc3ccccn3)nc2c(=O)[nH]1 [Example 4]	26.6 nM
CCCOc1ccc(S(=O)(=O)N2CC(O)C2)cc1-c1nc2c(CCC)n(Cc3ccccn3)nc2c(=O)[nH]1 [Example 8]	16.4 nM
